# From ChEMBL document CHEMBL5608179, “Triptonide induces apoptosis and inhibits the proliferation of ovarian cancer cells by activating the p38/p53 pathway and autophagy” (Bioorg Med Chem, 2024)
# Active and inactive are the calls of the source. The calls are words filed in the database; no cut-off is given here.
# Tests used:
# A2780 [1] = experiment: Induction of cell cycle arrest in human A2780 cells assessed as accumulation of cells at S phase at 1 nM measured after 24 hrs by PI staining based ell Cycle Analysis Kit (KeyGEN) (reference value: 10%); type: functional
# A2780 [2] = experiment: Induction of cell cycle arrest in human A2780 cells assessed as accumulation of cells at G1 phase at 1 nM measured after 24 hrs by PI staining based ell Cycle Analysis Kit (KeyGEN) (reference value: 53.9%); type: functional
# A2780 [3] = experiment: Induction of apoptosis in human A2780 cells assessed as early apoptotic cells in presence of p53 SiRNA 2 at 4 nM measured after 24 hrs by Annexin V-FITC/PI flow cytometry (reference value: 2.82%); type: functional
# A2780 [4] = experiment: Inhibition of colony formation in human A2780 cells at 0.25 to 0.5 uM incubated for 24 hrs by EdU staining based assay; type: functional, cell-based; conditions: dose 0.25-0.5 µM
# A2780 [5] = experiment: Induction of apoptosis in human A2780 cells assessed as decrease in cleaved Bcl-xL level measured at 5 to 20 nM after 12 to 48 hrs by Western blot analysis; type: functional, cell-based; conditions: dose 5-20 nM, time 12-48 hrs
# A2780 [6] = experiment: Induction of apoptosis in human A2780 cells assessed as viable cells in presence of bafilomycin A1 at 800 nM measured after 24 hrs by Annexin V-FITC/PI flow cytometry (reference value: 96.1%); type: functional
# A2780 [7] = experiment: Antiproliferative activity against human A2780 cells assessed as number of fluorescent dots in presence of p53 SiRNA 1 at 4 nM measured after 24 hrs by KitkFluor555 Click-iT EdU Kit staining assay; type: functional, cell-based
# A2780 [8] = experiment: Induction of apoptosis in human A2780 cells assessed as late apoptotic cells in presence of SB203580 at 8 nM measured after 24 to 72 hrs by Annexin V-FITC/PI flow cytometry (reference value: 2.54%); type: functional; conditions: time 24-72 hrs
# A2780 [9] = experiment: Induction of cell cycle arrest at S phase in human A2780 cells assessed as increase in cyclin B1 proteins measured after 24 hrs by Western blot analysis; type: functional, cell-based; conditions: dose 5-20 nM
# SK-OV-3 = experiment: Cytotoxicity against human SK-OV-3 cells assessed as cell viability measured after 48 hrs by MTT assay; type: functional, cell-based; conditions: SK-OV-3, 48 h
# A2780 [10] = experiment: Cytotoxicity against human A2780 cells assessed as cell viability in presence of p53 SiRNA 2 measured after 48 hrs by MTT assay; type: functional, cell-based
# A2780 [11] = experiment: Induction of cell cycle arrest in human A2780 cells assessed as accumulation of cells at G2 phase at 2 nM measured after 24 hrs by PI staining based ell Cycle Analysis Kit (KeyGEN) (reference value: 22.2%); type: functional
# A2780 [12] = experiment: Cytotoxicity against human A2780 cells assessed as cell viability measured after 24 to 72 hrs by MTT assay; type: functional, cell-based; conditions: dose 4-64 nM, time 24-72 hrs
# A2780 [13] = experiment: Induction of apoptosis in human A2780 cells assessed as necrotic cells in presence of p53 SiRNA 1 at 4 nM measured after 24 hrs by Annexin V-FITC/PI flow cytometry (reference value: 0.39%); type: functional
# A2780 [14] = experiment: Induction of apoptosis in human A2780 cells assessed as viable cells in presence of p53 SiRNA 2 at 4 nM measured after 24 hrs by Annexin V-FITC/PI flow cytometry (reference value: 94.2%); type: functional
# A2780 [15] = experiment: Induction of cleaved PARP level in human A2780 cells at 5 to 20 nM measured after 24 hrs by Western blot analysis; type: functional, cell-based; conditions: dose 5-20 nM
# [16] = Toxicity in BALB/c-nu mouse subcutaneously inoculated with human A2780 cells assessed as change in body weight at 3 to 5 mg/kg, ip administered every day for 20 days; type: organism-based; conditions: in vivo, 480 h, dose 3-5 mg/kg, time 20 day
# A2780 [17] = experiment: Induction of apoptosis in human A2780 cells assessed as increase in cleaved PARP level measured after 12 to 48 hrs by Western blot analysis; type: functional, cell-based; conditions: dose 5-20 nM, time 12-48 hrs
# A2780 [18] = experiment: Induction of apoptosis in human A2780 cells assessed as late apoptotic cells in presence of p53 SiRNA 2 at 4 nM measured after 24 hrs by Annexin V-FITC/PI flow cytometry (reference value: 2.54%); type: functional
# A2780 [19] = experiment: Induction of apoptosis in human A2780 cells assessed as necrotic cells at 800 nM measured after 24 hrs by Annexin V-FITC/PI flow cytometry (reference value: 0.18%); type: functional
# A2780 [20] = experiment: Induction of apoptosis in human A2780 cells assessed as decrease in cleaved Bcl-2 level measured at 5 to 20 nM after 12 to 48 hrs by Western blot analysis; type: functional, cell-based; conditions: dose 5-20 nM, time 12-48 hrs
# A2780 [21] = experiment: Induction of apoptosis in human A2780 cells assessed as viable cells at 4 nM measured after 24 hrs by Annexin V-FITC/PI flow cytometry (reference value: 94.2%); type: functional; conditions: read-out: Activity
# A2780 [22] = experiment: Cytotoxicity against human A2780 cells assessed as cell viability measured at 4 to 64 nM by MTT assay; type: functional, cell-based; conditions: dose 4-64 nM, time 24-72 hrs, TDE = time-dependent effect
# A2780 [23] = experiment: Induction of apoptosis in human A2780 cells assessed as necrotic cells in presence of p53 SiRNA 2 at 4 nM measured after 24 hrs by Annexin V-FITC/PI flow cytometry (reference value: 0.39%); type: functional
# A2780 [24] = experiment: Induction of apoptosis in human A2780 cells assessed as viable cells at 800 nM measured after 24 hrs by Annexin V-FITC/PI flow cytometry (reference value: 96.1%); type: functional; conditions: read-out: Activity
# [25] = Toxicity in BALB/c-nu mouse subcutaneously inoculated with human A2780 cells assessed as morphological changes of lung at 3 to 5 mg/kg, ip administered every day for 20 days by HE staining analysis; type: organism-based; conditions: in vivo, sc, 480 h, dose 3-5 mg/kg, time 20 day
# A2780 [26] = experiment: Induction of p38 expression in human A2780 cells in presence of SB203580 at 5 to 20 nM measured after 24 hrs by Western blot analysis; type: functional, cell-based; conditions: dose 5-20 nM
# A2780 [27] = experiment: Reduction in p62 expression in human A2780 cells in presence of autophagy inhibitor bafilomycin A1 at 5 to 20 nM measured after 24 hrs by Western blot analysis; type: functional, cell-based; conditions: dose 5-20 nM
compound,measurement,setting,value
CC(C)[C@]12O[C@H]1[C@@H]1O[C@]13[C@]1(O[C@H]1C[C@H]1C4=C(CC[C@@]13C)C(=O)OC4)[C@@H]2O [TRIPTOLIDE],Activity,A2780 [1],14.4%
same,Activity,A2780 [2],67.3%
same,Activity,A2780 [3],12.6%
same,inhibition,A2780 [4],Active
same,Activity,A2780 [5],Dose-Dependent Effect
same,Activity,A2780 [6],90.3%
same,Activity,A2780 [7],inactive
same,Activity,A2780 [8],12%
same,Activity,A2780 [9],Dose-Dependent Effect
same,IC50,SK-OV-3,803 nM
same,Activity,A2780 [10],inactive
same,Activity,A2780 [11],15.3%
same,Activity,A2780 [12],Dose-Dependent Effect
same,Activity,A2780 [13],8.18%
same,Activity,A2780 [14],66.5%
same,Activity,A2780 [15],Active
same,Activity,[16],Non-Toxic
same,Activity,A2780 [17],Dose-Dependent Effect
same,Activity,A2780 [18],14.4%
same,Activity,A2780 [19],2.33%
same,Activity,A2780 [20],Dose-Dependent Effect
same,viability at 0.004 µM,A2780 [21],33.1%
same,Activity,A2780 [22],Tde
same,Activity,A2780 [23],6.47%
same,viability at 0.8 µM,A2780 [24],74%
same,Activity,[25],Non-Toxic
same,Activity,A2780 [26],Active
same,Activity,A2780 [27],inactive
